#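 Assay format: 96-well plates, 48-hour exposure. The concentration for 50% growth inhibition is given as GI50. TGI denotes the concentration required for complete inhibition of growth.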
# Key:
# Assay in all cases: DTP human tumour cell line panel, 48 h
# RPMI-8226 leukemia = test system: RPMI-8226 leukemia
# NCI-H23 lung = test system: NCI-H23 lung
# LOX IMVI melanoma = test system: LOX IMVI melanoma
# OVCAR-4 ovarian = test system: OVCAR-4 ovarian
# RXF 393 renal = test system: RXF 393 renal
# CCRF-CEM leukemia = test system: CCRF-CEM leukemia
# COLO 205 colon = test system: COLO 205 colon
# NCI-H226 lung = test system: NCI-H226 lung
# UACC-257 melanoma = test system: UACC-257 melanoma
# HT29 colon = test system: HT29 colon
# SF-295 CNS = test system: SF-295 CNS
# KM12 colon = test system: KM12 colon
# HL-60(TB) leukemia = test system: HL-60(TB) leukemia
# IGROV1 ovarian = test system: IGROV1 ovarian
# SK-MEL-5 melanoma = test system: SK-MEL-5 melanoma
# MDA-MB-231 breast = test system: MDA-MB-231 breast
# NCI-H460 lung = test system: NCI-H460 lung
# CAKI-1 renal = test system: CAKI-1 renal
# SW-620 colon = test system: SW-620 colon
# BT-549 breast = test system: BT-549 breast
# HCC-2998 colon = test system: HCC-2998 colon
# HCT-15 colon = test system: HCT-15 colon
# OVCAR-8 ovarian = test system: OVCAR-8 ovarian
# MOLT-4 leukemia = test system: MOLT-4 leukemia
# UO-31 renal = test system: UO-31 renal
# MCF7 breast = test system: MCF7 breast
# K-562 leukemia = test system: K-562 leukemia
# SN12C renal = test system: SN12C renal
# ACHN renal = test system: ACHN renal
# HOP-62 NSCLC = test system: HOP-62 NSCLC
# UACC-62 melanoma = test system: UACC-62 melanoma
# HOP-92 NSCLC = test system: HOP-92 NSCLC
# U251 CNS = test system: U251 CNS
# T-47D breast = test system: T-47D breast
# SR leukemia = test system: SR leukemia
# 786-0 renal = test system: 786-0 renal
# PC-3 prostate = test system: PC-3 prostate
# SK-MEL-2 melanoma = test system: SK-MEL-2 melanoma
# A498 renal = test system: A498 renal
# SK-MEL-28 melanoma = test system: SK-MEL-28 melanoma
# MDA-MB-435 = test system: MDA-MB-435
# EKVX NSCLC = test system: EKVX NSCLC
# A549 NSCLC = test system: A549 NSCLC
# HCT-116 colon = test system: HCT-116 colon
# SF-539 CNS = test system: SF-539 CNS
# NCI-H522 lung = test system: NCI-H522 lung
# HS 578T breast = test system: HS 578T breast
# MALME-3M melanoma = test system: MALME-3M melanoma
# SNB-19 CNS = test system: SNB-19 CNS
# M14 melanoma = test system: M14 melanoma
# SF-268 CNS = test system: SF-268 CNS
# NCI/ADR-RES ovarian = test system: NCI/ADR-RES ovarian
# SNB-75 CNS = test system: SNB-75 CNS
# DU-145 prostate = test system: DU-145 prostate
# OVCAR-3 ovarian = test system: OVCAR-3 ovarian
# TK-10 renal = test system: TK-10 renal
# OVCAR-5 ovarian = test system: OVCAR-5 ovarian
structure (smiles),measurement,setting,value
COc1ccc2sc3c(NCCCN(C)C)nc4ccccc4c3c(=O)c2c1,GI50,RPMI-8226 leukemia,1.68 µM
same,TGI,RPMI-8226 leukemia,3.66 µM
same,GI50,NCI-H23 lung,1.59 µM
same,TGI,NCI-H23 lung,3.06 µM
same,GI50,LOX IMVI melanoma,1.48 µM
same,TGI,LOX IMVI melanoma,2.89 µM
same,GI50,OVCAR-4 ovarian,1.8 µM
same,TGI,OVCAR-4 ovarian,3.82 µM
same,GI50,RXF 393 renal,1.22 µM
same,TGI,RXF 393 renal,2.53 µM
same,GI50,CCRF-CEM leukemia,1.57 µM
same,TGI,CCRF-CEM leukemia,3.67 µM
same,GI50,COLO 205 colon,1.58 µM
same,TGI,COLO 205 colon,3.52 µM
same,GI50,NCI-H226 lung,1.67 µM
same,TGI,NCI-H226 lung,3.34 µM
same,GI50,UACC-257 melanoma,1.81 µM
same,TGI,UACC-257 melanoma,3.49 µM
same,GI50,HT29 colon,1.5 µM
same,TGI,HT29 colon,3.02 µM
same,GI50,SF-295 CNS,1.82 µM
same,TGI,SF-295 CNS,3.27 µM
same,GI50,KM12 colon,1.68 µM
same,TGI,KM12 colon,3.18 µM
same,GI50,HL-60(TB) leukemia,1.88 µM
same,TGI,HL-60(TB) leukemia,3.91 µM
same,GI50,IGROV1 ovarian,1.67 µM
same,TGI,IGROV1 ovarian,3.23 µM
same,GI50,SK-MEL-5 melanoma,1.73 µM
same,TGI,SK-MEL-5 melanoma,3.12 µM
same,GI50,MDA-MB-231 breast,1.38 µM
same,TGI,MDA-MB-231 breast,2.8 µM
same,GI50,NCI-H460 lung,1.54 µM
same,TGI,NCI-H460 lung,3.03 µM
same,GI50,CAKI-1 renal,1.6 µM
same,TGI,CAKI-1 renal,2.95 µM
same,GI50,SW-620 colon,1.55 µM
same,TGI,SW-620 colon,3.04 µM
same,GI50,BT-549 breast,5.24 µM
same,TGI,BT-549 breast,18.1 µM
same,GI50,HCC-2998 colon,1.7 µM
same,TGI,HCC-2998 colon,3.26 µM
same,GI50,HCT-15 colon,1.36 µM
same,TGI,HCT-15 colon,2.7 µM
same,GI50,OVCAR-8 ovarian,1.7 µM
same,TGI,OVCAR-8 ovarian,3.62 µM
same,GI50,MOLT-4 leukemia,1.71 µM
same,TGI,MOLT-4 leukemia,3.56 µM
same,GI50,UO-31 renal,1.47 µM
same,TGI,UO-31 renal,2.84 µM
same,GI50,MCF7 breast,1.74 µM
same,TGI,MCF7 breast,3.4 µM
same,GI50,K-562 leukemia,1.8 µM
same,TGI,K-562 leukemia,4.71 µM
same,GI50,SN12C renal,1.71 µM
same,TGI,SN12C renal,3.2 µM
same,GI50,ACHN renal,1.56 µM
same,TGI,ACHN renal,2.9 µM
same,GI50,HOP-62 NSCLC,1.6 µM
same,TGI,HOP-62 NSCLC,3.2 µM
same,GI50,UACC-62 melanoma,1.8 µM
same,TGI,UACC-62 melanoma,3.24 µM
same,GI50,HOP-92 NSCLC,1.03 µM
same,TGI,HOP-92 NSCLC,2.47 µM
same,GI50,U251 CNS,1.53 µM
same,TGI,U251 CNS,3.27 µM
same,GI50,T-47D breast,1.86 µM
same,TGI,T-47D breast,4.24 µM
same,GI50,SR leukemia,1.68 µM
same,TGI,SR leukemia,5.99 µM
same,GI50,786-0 renal,1.34 µM
same,TGI,786-0 renal,2.71 µM
same,GI50,PC-3 prostate,1.62 µM
same,TGI,PC-3 prostate,3.22 µM
same,GI50,SK-MEL-2 melanoma,1.76 µM
same,TGI,SK-MEL-2 melanoma,3.32 µM
same,GI50,A498 renal,1.38 µM
same,TGI,A498 renal,2.78 µM
same,GI50,SK-MEL-28 melanoma,1.78 µM
same,TGI,SK-MEL-28 melanoma,3.2 µM
same,GI50,MDA-MB-435,1.59 µM
same,TGI,MDA-MB-435,2.98 µM
same,GI50,EKVX NSCLC,1.51 µM
same,TGI,EKVX NSCLC,2.93 µM
same,GI50,A549 NSCLC,1.75 µM
same,TGI,A549 NSCLC,3.74 µM
same,GI50,HCT-116 colon,1.57 µM
same,TGI,HCT-116 colon,3.01 µM
same,GI50,SF-539 CNS,1.63 µM
same,TGI,SF-539 CNS,3.06 µM
same,GI50,NCI-H522 lung,1.78 µM
same,TGI,NCI-H522 lung,3.46 µM
same,GI50,HS 578T breast,1.49 µM
same,TGI,HS 578T breast,3.26 µM
same,GI50,MALME-3M melanoma,1.62 µM
same,TGI,MALME-3M melanoma,3.18 µM
same,GI50,SNB-19 CNS,1.64 µM
same,TGI,SNB-19 CNS,3.06 µM
same,GI50,M14 melanoma,1.78 µM
same,TGI,M14 melanoma,3.33 µM
same,GI50,SF-268 CNS,1.67 µM
same,TGI,SF-268 CNS,3.35 µM
same,GI50,NCI/ADR-RES ovarian,1.64 µM
same,TGI,NCI/ADR-RES ovarian,3.28 µM
same,GI50,SNB-75 CNS,1.42 µM
same,TGI,SNB-75 CNS,2.8 µM
same,GI50,DU-145 prostate,1.66 µM
same,TGI,DU-145 prostate,3.07 µM
same,GI50,OVCAR-3 ovarian,1.78 µM
same,TGI,OVCAR-3 ovarian,3.27 µM
same,GI50,TK-10 renal,1.81 µM
same,TGI,TK-10 renal,3.31 µM
same,GI50,OVCAR-5 ovarian,1.76 µM
same,TGI,OVCAR-5 ovarian,3.23 µM
